Patent US20230094952A1, “Method for Culturing Hematopoietic Stem Cells” (Sumitomo Pharma Co., Ltd., priority 2019, published 2023)

Key:
[1] = system: human hematopoietic stem cells (CD34-positive cells); experiment: Confirmation test with human cells: 1-week culture of cord blood Lineage-negative CD34-positive cells, flow cytometry; type: cell-based; conditions: 180 cells before culture, no UM171
Excerpt: Collection of Human Cord Blood-Derived Mononuclear Cells Human cord blood-derived mononuclear cells were subjected to removal of erythrocytes and concentration treatment by using EasySep RBC Depletion Reagent (manufactured by […] Technologies Inc.) to obtain a cell population including hematopoietic stem cells.
First, a CD34-positive cell fraction was partially purified from the thus-obtained cell population including hematopoietic stem cells by using an EASYSep Human Cord Blood CD34 Positive Selection Kit II (manufactured by […] Technologies Inc.). The concentrated CD34-positive cells in a cell population enriched with hematopoietic stem cells and progenitor cells were stained with antibodies for the following cell surface markers.
Staining with the antibodies was performed at 4° C., and the cells were incubated for 30 minutes. For staining with the CD34 antibody, the cells were incubated for 90 minutes. Dead cell staining was performed with SYTOX Blue Dead Cell Stain (manufactured by Life Technologies) in accordance with a method recommended by the manufacturer.
Flow cytometry analysis and cell classification (cell sorting) were performed with a FACS Aria III cell sorter (manufactured by BD Biosciences), wherein fractions being Lineage-negative and CD34-positive were regarded as hematopoietic stem cells, and analysis was performed with the software FlowJo (manufactured by Tree Star, Inc.).
The cells after classification were seeded in a 96-well plate. […]
Each of artemether and the compounds of Example 1-23, Example 1-16, and Example 1-7 was prepared with the cell culture medium at nine final concentrations (0.001 μM, 0.003 μM, 0.01 μM, 0.03 μM, 0.1 μM, 0.3 μM, 1 μM, 3 μM, 10 μM), and added to the above human cells seeded after classification to a final volume of 200 μL/well to act thereon. UM171 (35 nM) was added to some of them to examine the presence or absence of synergistic effect. Thereafter, the cells were cultured in a CO2 incubator under conditions of 37° C. and 5% CO2 for 1 week. Viable cell counts and CD34-positive cell counts were analyzed.
After culture, the cells were stained with the antibodies for the surface markers CD34, CD11b, CD14, CD19, CD20, CD235ab, CD3, CD4, CD56, and CD8a, and the visible cell count and the ratio and post-growth cell count of a CD34 fraction (CD34^+, Lin^−) were measured by using a FACS Aria III cell sorter, and analyzed by using FlowJo (BD Biosciences). The CD34 fraction is a fraction including hematopoietic stem cells and multipotent progenitor cells as main components.

[2] = system: human hematopoietic stem cells (CD34-positive cells); experiment: Functional test with human cells: colony assay (CFU-GEMM) after culture; type: cell-based; conditions: 1 week culture then 2 weeks MethoCult H4435, no UM171
Description: Each of artemether and the compounds of Example 1-23, Example 1-16, and Example 1-7 was prepared with the cell culture medium at nine final concentrations (0.001 μM, 0.003 μM, 0.01 μM, 0.03 μM, 0.1 μM, 0.3 μM, 1 μM, 3 μM, 10 μM), and added to the above human cells seeded after classification to a final volume of 200 μL/well to act thereon. UM171 (35 nM) was added to some of them to examine the presence or absence of synergistic effect. Thereafter, the cells were cultured in a CO2 incubator under conditions of 37° C. and 5% CO2 for 1 week, collected, and then seeded in a 96-well plate to place one CD34-positive cell in each well by using a FACS Aria III cell sorter, and cultured with a MethoCult H4435 ([…] Technologies Inc.) for 2 weeks. After culture, each well was photographed with an optical microscope (manufactured by KEYENCE CORPORATION), and the colony count was determined by visual observation and the form of each colony was determined by visual observation. Colony Formation Unit-Granulocytes, Erythroids, Macrophages, Megakaryocytes (CFU-GEMM), which are derived from myeloid progenitor cells, the erythroid burst colony-forming cells Burst Forming Unit-Erythroids (BFU-E), the granulocyte/macrophage colony-forming cells Colony Formation Unit-Granulocytes, Macrophages (CFU-GM) were determined on the basis of the forms of colonies, and the numbers were counted.

C[C@H]1[C@H](c2ccco2)O[C@@H]2O[C@@]3(C)CC[C@H]4[C@H](C)CC[C@@H]1[C@@]24OO3 [Example 1-7, (3R,5aS,6R,8aS,9R,10R,12R,12aR)-10-(Furan-2-yl)-3,6,9-trimethyldecahydro-12H-3,12-epoxypyrano[4,3-j][1,2]benzodioxepine]
CD34-positive cell count ([1]; compound 0.001 μM): 175 cell | Viable cell count ([1]; compound 0.001 μM): 1314 cell | CD34-positive cell count ([1]; compound 0.003 μM): 113 cell | Viable cell count ([1]; compound 0.003 μM): 1013 cell | CD34-positive cell count ([1]; compound 0.01 μM): 150 cell | Viable cell count ([1]; compound 0.01 μM): 1115 cell | CD34-positive cell count ([1]; compound 0.03 μM): 86 cell | Viable cell count ([1]; compound 0.03 μM): 905 cell | CD34-positive cell count ([1]; compound 0.1 μM): 80 cell | Viable cell count ([1]; compound 0.1 μM): 693 cell | CD34-positive cell count ([1]; compound 0.3 μM): 5 cell | Viable cell count ([1]; compound 0.3 μM): 439 cell | CD34-positive cell count ([1]; compound 1 μM): 4 cell | Viable cell count ([1]; compound 1 μM): 196 cell | CD34-positive cell count ([1]; compound 3 μM): 0 cell | Viable cell count ([1]; compound 3 μM): 202 cell | CD34-positive cell count ([1]; compound 10 μM): 0 cell | Viable cell count ([1]; compound 10 μM): 181 cell | Colony count (colony) after culture (CFU-GEMM) ([2]; compound 0.001 μM): 43.8 colony | Colony count (colony) after culture (CFU-GEMM) ([2]; compound 0.003 μM): 33.8 colony | Colony count (colony) after culture (CFU-GEMM) ([2]; compound 0.01 μM): 74.3 colony | Colony count (colony) after culture (CFU-GEMM) ([2]; compound 0.03 μM): 83.0 colony | Colony count (colony) after culture (CFU-GEMM) ([2]; compound 0.1 μM): 64.1 colony | Colony count (colony) after culture (CFU-GEMM) ([2]; compound 0.3 μM): 19.5 colony | Colony count (colony) after culture (CFU-GEMM) ([2]; compound 1 μM): 0.0 colony | Colony count (colony) after culture (CFU-GEMM) ([2]; compound 3 μM): 0.0 colony | Colony count (colony) after culture (CFU-GEMM) ([2]; compound 10 μM): 0.0 colony
